The record followed here is ChEMBL document CHEMBL1132769, “Diphenyl sulfoxides as selective antagonists of the muscarinic M2 receptor” (Bioorg Med Chem Lett, 2000).

Structures are written as SMILES. Values joined by “and” are separate entries in the source; they are usually repeats but may differ in a detail not shown here. Equal entries are not always repeated.

Experiment [1] addresses Muscarinic acetylcholine receptors; M1 & M2 (Homo sapiens) (UniProt P11229+P08172). The experiment is described as follows: Ratio of binding affinity to M1 receptor compared to that of M2 receptor. It counts as protein assay.
In experiment [2] the target is T1, Muscarinic acetylcholine receptor M1 (Homo sapiens, UniProt P11229).
T1 sequence (P11229 whole entry): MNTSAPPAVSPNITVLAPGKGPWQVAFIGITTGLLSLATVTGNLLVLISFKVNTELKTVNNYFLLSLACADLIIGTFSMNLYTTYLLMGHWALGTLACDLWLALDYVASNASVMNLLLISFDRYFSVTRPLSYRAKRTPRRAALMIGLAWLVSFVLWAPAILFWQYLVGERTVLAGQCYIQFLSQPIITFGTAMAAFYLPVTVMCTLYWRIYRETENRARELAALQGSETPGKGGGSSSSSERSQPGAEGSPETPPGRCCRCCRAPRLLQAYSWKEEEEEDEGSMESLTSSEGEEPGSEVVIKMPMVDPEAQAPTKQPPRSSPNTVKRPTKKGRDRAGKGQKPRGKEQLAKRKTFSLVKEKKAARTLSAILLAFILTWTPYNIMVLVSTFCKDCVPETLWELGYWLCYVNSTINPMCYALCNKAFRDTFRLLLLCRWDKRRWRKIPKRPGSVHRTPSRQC
The experiment is described as follows: Binding affinity towards the cloned human Muscarinic acetylcholine receptor M1.

Experiment [3] has as its target T2, Muscarinic acetylcholine receptor M2 (Homo sapiens, UniProt P08172).
T2 sequence (P08172 whole entry): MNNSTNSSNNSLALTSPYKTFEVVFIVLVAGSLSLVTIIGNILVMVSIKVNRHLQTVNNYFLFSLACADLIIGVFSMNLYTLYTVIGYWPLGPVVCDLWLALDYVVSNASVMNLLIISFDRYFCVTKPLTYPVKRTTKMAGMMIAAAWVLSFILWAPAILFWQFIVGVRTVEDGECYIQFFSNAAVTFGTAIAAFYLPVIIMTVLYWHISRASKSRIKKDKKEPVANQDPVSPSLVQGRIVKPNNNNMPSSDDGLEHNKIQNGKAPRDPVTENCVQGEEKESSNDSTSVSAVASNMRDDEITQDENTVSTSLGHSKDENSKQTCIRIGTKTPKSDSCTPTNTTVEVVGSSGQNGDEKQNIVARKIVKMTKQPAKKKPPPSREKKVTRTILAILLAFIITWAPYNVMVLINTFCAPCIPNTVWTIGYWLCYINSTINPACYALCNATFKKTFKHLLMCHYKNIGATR
Put plainly: Binding affinity towards the cloned human Muscarinic acetylcholine receptor M2.

Turning to `COc1ccc([S@@+]([O-])c2ccc(C(C#N)N3CCN(C4CCCCC4)CC3)cc2)cc1` (single isomer, unassigned; form 2) [listing 1 of 2 here], in experiment [1], the Ratio is 22 and 9.
`COc1ccc([S@@+]([O-])c2ccc(C(C#N)N3CCN(C4CCCCC4)CC3)cc2)cc1` (single isomer, unassigned; form 1) [listing 1 of 2 here]: the Ratio in experiment [1] was 15.
The term Ki denotes the dissociation constant of the complex between target and ligand, obtained from inhibition or displacement. A lower Ki goes with tighter binding. As to `COc1ccc([S+]([O-])c2ccc(C(N3CCN(C4CCCCC4)CC3)C(F)(F)F)cc2)cc1` (stereo unspecified), the Ki in experiment [2] was determined as 0.023 µM; in experiment [3], 0.005 µM. In addition, the Ratio in experiment [1] turned out to be 5.
With `COc1ccc([S@@+]([O-])c2ccc(C(C#N)N3CCN(C4CCCCC4)CC3)cc2)cc1` (single isomer, unassigned; form 2) [listing 2 of 2 here], the Ki in experiment [2] is 0.083 µM and 0.18 µM; in experiment [3], 0.0038 µM and 0.02 µM.
Take `COc1ccc([S+]([O-])c2ccc(C(C(N)=O)N3CCN(C4CCCCC4)CC3)cc2)cc1` (stereo unspecified): the values for the Ki in experiment [2] and in experiment [3] were 0.242 µM and 0.04 µM, respectively. The Ratio in experiment [1] turned out to be 6.
`CC(c1ccc(S(=O)(=O)c2ccccc2)cc1)N1CCN(c2ccccc2)CC1` (stereo unspecified): the Ki in experiment [2] is 4.77 µM; in experiment [3] it was 4.6 µM. In addition, the Ratio in experiment [1] turned out to be 1.
With `COc1ccc([S+]([O-])c2ccc(C(C3CCCCC3)N3CCN(C4CCCCC4)CC3)cc2)cc1` (stereo unspecified), the Ki in experiment [2] turned out to be 0.052 µM; in experiment [3], 0.017 µM. For the same compound, in experiment [1], the Ratio came out at 3.
`CC(c1ccc(S(=O)(=O)c2ccccc2)cc1)N1CCNCC1` (stereo unspecified): the results for the Ki in experiment [2] and in experiment [3] were 0.057 µM and 0.037 µM, respectively. Further, the Ratio in experiment [1] was found to be 1.6.
For `Cc1ccc(S(=O)(=O)c2ccc(C(C)N3CCN(C4CCCCC4)CC3)cc2)cc1` (stereo unspecified) the same measures were 0.011 µM, 0.0008 µM and 14.
For `CC(c1ccc(S(=O)(=O)c2ccc(S(C)(=O)=O)cc2)cc1)N1CCN(C2CCCCC2)CC1` (stereo unspecified), the Ki in experiment [2] is 0.106 µM; in experiment [3] it was 0.036 µM. Also, in experiment [1], the Ratio worked out at 3.
`CC(c1ccc(S(=O)(=O)c2ccccc2)cc1)N1CCN(CCO)CC1` (stereo unspecified): the Ki in experiment [2] stood at 0.077 µM; in experiment [3], 0.026 µM. Also, in experiment [1], the Ratio was 3.
With `CC(c1ccc(S(=O)(=O)c2ccc(C(C)(C)C)cc2)cc1)N1CCN(C2CCCCC2)CC1` (stereo unspecified), the Ki in experiment [2] was determined as 0.085 µM; in experiment [3] it was 0.033 µM. In addition, the Ratio in experiment [1] came out at 2.6.
For the compound `CC(c1ccc(S(=O)(=O)c2ccccc2)cc1)N1CCN(C2CCCCC2)CC1` (stereo unspecified), the Ki in experiment [2] was 0.0013 µM; in experiment [3], 0.0002 µM. In addition, the Ratio in experiment [1] was determined as 6.
On to `CCOC(=O)N1CCN(C(C)c2ccc(S(=O)(=O)c3ccccc3)cc2)CC1` (stereo unspecified), for which the Ki worked out at 0.2 µM in experiment [2] and 0.135 µM in experiment [3]. In experiment [1], the Ratio came out at 1.5.
The corresponding values for `CC(c1ccc(S(=O)(=O)c2ccccc2)cc1)N1CCN(C)CC1` (stereo unspecified) are 0.096 µM, 0.034 µM and 3.
For `COc1ccc(S(=O)(=O)c2ccc(C(C)N3CCN(C4CCCCC4)CC3)cc2)cc1` (stereo unspecified), the Ki in experiment [2] was 0.006 µM; in experiment [3], 0.0006 µM. Moreover, the Ratio in experiment [1] came to 10.
In the case of `COc1ccc([S@@+]([O-])c2ccc(C(C#N)N3CCN(C4CCCCC4)CC3)cc2)cc1` (single isomer, unassigned; form 1) [listing 2 of 2 here], the Ki in experiment [2] was 0.14 µM and 0.253 µM; in experiment [3] it was 0.009 µM and 0.017 µM.
As to `COc1ccc([S@@+]([O-])c2ccc(C(C#N)N3CCN(C4CCCCC4)CC3)cc2)cc1` (stereo in doubt; 1) [listing 1 of 2 here], the Ratio in experiment [1] was 40.
Turning to `COc1ccc([S+]([O-])c2ccc(C(C#N)N3CCN(C4CCCCC4)CC3)cc2)cc1` (stereo unspecified), the results for the Ki in experiment [2] and in experiment [3] were 0.117 µM and 0.008 µM, respectively. Also, the Ratio in experiment [1] was found to be 14.
Take `COc1ccc([S@@+]([O-])c2ccc(C(C#N)N3CCN(C4CCCCC4)CC3)cc2)cc1` (stereo in doubt; 1) [listing 2 of 2 here]: the Ki in experiment [3] amounted to 0.0027 µM.
`COc1ccc([S+]([O-])c2ccc(C(C)N3CCN(C4CCCCC4)CC3)cc2)cc1` (stereo unspecified): the Ratio in experiment [1] worked out at 6.
